Measurements: patent US5344841A, “Bis-(hydroxylakylamino)-anthraquinone inhibitors of protein kinase C” (Sphinx Pharmaceuticals Corporation, priority 1992, dated 1994)
Structures can show the parent of a compound that is named as a salt. Where two headings read alike, the source gives them in different places.

How the values were obtained:
human neutrophils = test: Neutrophil superoxide anion (O2-) release assay, PMA-stimulated; type: cell-based; settings: PMA-stimulated O2- production
Protocol: Neutrophils were isolated form whole blood collected from human volunteers. All reagent materials were obtained from Sigma Chemical Company with the exception of isotonic saline (Travenol Lab., Inc. Deerfield, Ill.) and lymphocyte separation medium (Organon Teknika, Durham, N.C.). Whole blood was drawn and mixed with sodium heparin (final conc. 10 units/ml) to prevent clotting. An equal volume of dextran (3.0%) in isotonic saline was added, mixed, and allowed to settle for 30 min to bind red blood cells (RBC). The supernatant was removed, underlayered with lymphocyte separation medium and centrifuged for 40 min at 400 xg in a centrifuge (Beckman GPR, Norcross, Ga.). […] The washed pellet was resuspended in 10 ml HBSS and placed on ice before counting on a hemacytometer. The neutrophil cell concentration is adjusted to 2×10^6 cells/ml with HBSS before adding 0.8 ml cells to 12×75 mm polypropylene test tubes (Fisher Scientific). Test agents are diluted to determine dose response and added at 10×final concentration at a volume of 0.1 ml/tube in duplicate. […] Tubes are then centrifuged at 900 xg for 10 min, 0.5 ml supernatant is removed and added to 0.5 ml H2 O in a microcuvette. Optical density (OD) of cytochrome c is read in a spectrophotometer (Shimadzu) at 550 nm. The ΔOD of cytochrome c is obtained between PMA-stimulated and non-stimulated tubes, and the dose responses of the test agents are compared to the positive controls (which contain HBSS in place of test agents). PMA stimulates O2^- production which reduces cytochrome c. Reducing cytochrome c increases its absorbance, and the change in OD of cytochrome c is proportional to the amount of O2^- produced by PMA stimulation. Inhibition of the O2^- burst by test compounds of the invention is seen as a reduction in the change in optical density. Inhibition is expressed as IC50 μM and is the amount of test compound that will inhibit fifty percent of the PMA-stimulated respiratory outburst, i.e. O2^- production.

protein kinase C = test: Protein kinase C (PKC) inhibition assay (histone H1 phosphorylation); type: biochemical; settings: rat brain PKC, histone H1 substrate
Protocol: The protein kinase C (PKC) assay is designed to duplicated the in vivo conditions required for protein kinase C function. Therefore, pH, salt and cofactor concentrations are similar to physiologic levels. Histone H1 (lysine rich) is used in the assay as the phosphorylation acceptor protein because it is readily available and serves as a good substrate for protein kinase C. The enzyme is prepared from rat brain and is purified to apparent homogeneity as determined by a single band on silver stained SDS-polyacrylamide. Studies on the mechanism of regulation of protein kinase C by phospholipids, DAG and Ca^+2 have been hampered by the physical properties of the lipid cofactors. In the screening assay, phosphatidylserine (PS) and DAG are cosonicated to form unilamellar and multilamellar vesicles. The concentration of lipids in the assay are suboptimal to maximize the detection potential of the assay for inhibitors. […] The assay is started with the addition of enzyme and stopped after 10 min by the addition of 25% trichloroacetic acid (TCA) and 1.0 mg/ml bovine serum albumin (BSA). The radioactive histone product is retained and washed on glass fiber filters that allow the unreacted ^32 P-ATP to pass through. The amount of phosphorylation is determined by the radioactivity measured in a scintillation counter. Controls are included in every assay to measure background activity in the absence of enzyme, activity in the absence of lipids and the maximum enzyme activity with saturating levels of the activator lipids.

[1] = tested on: 8226/ADR adriamycin resistant line of 8226 cells; test: Human tumor growth inhibition, 3H-thymidine incorporation, 8226/ADR; type: cell-based; settings: 3H-thymidine uptake
[2] = tested on: 8226 human myeloma cell line; test: Human tumor growth inhibition, 3H-thymidine incorporation, 8226; type: cell-based; settings: read-out: IC50 8226
From the text: (§1) MCF-7 a human breast tumor cell line, and MCF-7/ADR an adriamycin resistant line of MCF-7 cells were obtained from the National Cancer Institute, Frederick, Md. NHEK a human keratinocyte cell line was obtained from Clonetic Corp., San Diego, Calif. 8226 a human myeloma cell line, 8226/MT a Mitoxantrone resistant line of 8226 cells, and 8226 ADR an adriamycin resistant line of 8226 cells were obtained from Dr. Bill Dalton, Arizona Cancer Center, Tuscon, Ariz.
(§2) Human tumor cells are trypsinized (0.05% trypsin, GIBCO), counted with a hemacytometer and seeded at a concentration of 10,000 cells/well in a 96 well microtiter plate. After allowing cells to attach to the surface overnight, the culture medium is aspirated and replaced with 100 μl of fresh medium. Test agents are diluted to determine dose response at 2× final concentration and added in quadruplicate at 100 μl/well to bring the total volume of each well to 200 μl. The microtiter plate is then incubated at 37° C. 5% CO2 overnight (18-24 hrs) before ^3 H-thymidine is added at a concentration of 0.5 μCi/well in 50 μl culture medium. The plate is incubated again for 4 hrs under the same conditions as above. Supernatant is then aspirated and 50 μl trypsin (0.05%, GIBCO) is added to each well. Cells are checked microscopically to determine detachment from surfaces, and plates are then harvested with a cell harvester (PHD, Cambridge Technology, Inc.) Filter papers corresponding to wells are placed in scintillation vials and counted to determine the amount of ^3 H-thymidine incorporated by the cells. Test agent response is compared to a positive control of cell wells with culture media only to determine the IC50. IC50 is the concentration of test compound required to inhibit fifty percent of the incorporation of ^3 H-thymidine into proliferating cells not exposed to test agent. Uptake of ^3 H-thymidine is a standard test for measuring the metabolism of cells. Cells which are actively proliferating take up ^3 H-thymidine, whereas cells that are not proliferating take up ^3 H-thymidine at much slower rates or not at all. Test agents that inhibit the uptake of ^3 H-thymidine thus slow the growth of cells.

[3] = tested on: MCF-7/ADR adriamycin resistant line of MCF-7 cells; test: Human tumor growth inhibition, 3H-thymidine incorporation, MCF-7/ADR; type: cell-based; settings: MCF-7/ADR vs MCF-7
From the text: as §1, §2

[4] = tested on: 8226/ADR adriamycin resistant line of 8226 cells; test: Human tumor growth inhibition, 3H-thymidine incorporation, 8226/ADR; type: cell-based; settings: 8226/ADR vs 8226
From the text: as §1, §2

[5] = tested on: MCF-7 human breast tumor cell line; test: Human tumor growth inhibition, 3H-thymidine incorporation, MCF-7; type: cell-based; settings: Homo sapiens, MCF7, 3 h, read-out: IC50 MCF-7
From the text: as §1, §2

[6] = tested on: MCF-7/ADR adriamycin resistant line of MCF-7 cells; test: Human tumor growth inhibition, 3H-thymidine incorporation, MCF-7/ADR; type: cell-based; settings: NCI/ADR-RES, 3H-thymidine uptake
[7] = tested on: 8226/MT Mitoxantrone resistant line of 8226 cells; test: Human tumor growth inhibition, 3H-thymidine incorporation, 8226/MT; settings: for Resistance Ratio (8226/MT): 8226/MT vs 8226; for IC50: Homo sapiens, read-out: IC50 8226/MT

CCN(CC)CC(O)CNc1ccc(NCC(O)CCl)c2c1C(=O)c1ccccc1C2=O (stereo not drawn) [1a-1 (HCl), 1-(3-Diethylamino-2-Hydroxypropylamino)-4-(3-Chloro-2-Hydroxypropylamino)-9, 10-Anthracenedione Hydrochloride Salt]
IC50 (human neutrophils; Hydrochloride Salt): > 12.5 µM | IC50 (protein kinase C; Hydrochloride Salt): 230 µM | IC50 (protein kinase C; listed as 1a-1 (HCl salt), Hydrochloride Salt): 230 µM

CCN(CC)CC(O)CNc1ccc(NCC(O)CCl)c2c1C(=O)c1ccccc1C2=O (stereo not drawn) [1a-1 (base), 1-(3-diethylamino-2-hydroxypropylamino)-4-(chloro-2-hydroxypropylamino)-9,10 anthracenedione]
IC50 (human neutrophils; Homo sapiens, Neutrophil): > 6.25 µM | IC50 (protein kinase C): 180 µM

CCCNCC(O)CNc1ccc(NCC(O)CCl)c2c1C(=O)c1ccccc1C2=O (stereo not drawn) [1a-2 (HCl)]
IC50 (protein kinase C): 160 µM

O=C1c2ccccc2C(=O)c2c(NCC(O)CNCc3ccccc3)ccc(NCC(O)CCl)c21 (stereo not drawn) [1a-3 (HCl)]
IC50 (protein kinase C): 110 µM

CCN(CC)CC(O)CNc1ccc(NCC(O)CO)c2c1C(=O)c1ccccc1C2=O (stereo not drawn) [1c-1 (HCl), 1-(3-Diethyl-2-Hydroxypropylamino)-4-(2,3-Dihydroxypropylamino)-9, 10-Anthracenedione Hydrochloride Salt]
IC50 (protein kinase C): 180 µM

COc1cccc2c1C(=O)c1c(O)c3c(c(O)c1C2=O)C[C@@](O)(C(=O)CO)C[C@@H]3O[C@H]1C[C@H](N)[C@H](O)[C@H](C)O1 [ADR, reference compound]
IC50 [1]: 0.57 µM | IC50 [2]: 0.05 µM | Resistance Ratio (IC50 MCF-7/ADR to IC50 MCF-7) [3]: 200 | Resistance Ratio (8226/ADR) [4]: 11.4 | IC50 [5]: 0.02 µM | IC50 [6]: 4 µM | Resistance Ratio (8226/MT) [7]: 1 | IC50 [7]: 0.05 µM

CCCNCC(O)CNc1ccc(NCC(O)CCl)c2c1C(=O)c1ccccc1C2=O (stereo not drawn) [Compound 1a-2]
IC50 [1]: 14.1 µM | IC50 ([2]; 3H-thymidine uptake): 10.2 µM | Resistance Ratio (IC50 MCF-7/ADR to IC50 MCF-7) [3]: 2.2 | Resistance Ratio (8226/ADR) [4]: 1.38 | IC50 ([5]; 3H-thymidine uptake): 7.4 µM | IC50 [6]: 16 µM

O=C1c2ccccc2C(=O)c2c(NCC(O)CNCc3ccccc3)ccc(NCC(O)CCl)c21 (stereo not drawn) [Compound 1a-3]
IC50 [1]: 16.3 µM | IC50 ([2]; 3H-thymidine uptake): 15 µM | Resistance Ratio (IC50 MCF-7/ADR to IC50 MCF-7) [3]: 1.9 | Resistance Ratio (8226/ADR) [4]: 1.08 | IC50 ([5]; 3H-thymidine uptake): 7.4 µM | IC50 [6]: 14.1 µM

CCN(CC)CC(O)CNc1ccc(NCC(O)CO)c2c1C(=O)c1ccccc1C2=O (stereo not drawn) [Compound 1c-1]
IC50 [1]: 25 µM | IC50 ([2]; 3H-thymidine uptake): 18 µM | Resistance Ratio (8226/ADR) [4]: 1.4

O=C1c2c(O)ccc(O)c2C(=O)c2c(NCCNCCO)ccc(NCCNCCO)c21 [MT, reference compound]
IC50 [1]: 0.18 µM | IC50 ([2]; 3H-thymidine uptake): 0.03 µM | Resistance Ratio (IC50 MCF-7/ADR to IC50 MCF-7) [3]: 800 | Resistance Ratio (8226/ADR) [4]: 6 | IC50 ([5]; 3H-thymidine uptake): 0.005 µM | IC50 [6]: 4 µM | Resistance Ratio (8226/MT) [7]: 3.5 | IC50 [7]: 0.105 µM
